Measured values reported in article PMC5011342, “A high throughput drug screening assay to identify compounds that promote oligodendrocyte differentiation using acutely dissociated and purified oligodendrocyte precursor cells” (BMC Research Notes, 2016).
Where two headings read alike, the source gives them in different places.

Assays:
expanded OPCs = experiment: cells; settings: for viability at 0.1 µM / viability at 1 µM / viability at 10 µM: Rattus norvegicus, 72 h
How it was run: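 Expanded OPCs seeded at 10,000 cells/well in differentiation media, then exposed to NCC library compounds at 10, 1 and 0.1 µM (quadruplicate, 0.1% DMSO) for three days. Viability read as alamarBlue fluorescence (560/590 nm) after 4 h at 37 °C; tunicamycin 5 ng/ml served as toxicity control.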

[1] = test system: acutely dissociated and purified rat OPCs; experiment: Acute OL differentiation assay (MBP expression/cell, immunofluorescent image quantification); format: cell-based; settings: for activation at 2 µM / activation at 10 µM / activation at 0.4 µM: Rattus norvegicus
How it was run: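 Oligodendrocyte precursor cells were enriched from P6-P7 Sprague–Dawley rat brains by immunopanning (RAN-2 and GalC depletion, O4 selection), plated at 5000 cells/well in serum-free, mitogen-free differentiation media on PDL/laminin 96-well view plates, centrifuged at 200×g, and pre-incubated 1–2 h before test compounds were added in quadruplicate. On DIV4, cells were fixed, stained for MBP and DAPI, imaged automatically, and MBP expression per cell was quantified.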

[2] = alamarBlue viability of expanded OPCs, compound at 0.1 µM, relative to DMSO control
[3] = alamarBlue viability of expanded OPCs, compound at 1 µM, relative to DMSO control
[4] = alamarBlue viability of expanded OPCs, compound at 10 µM, relative to DMSO control
[5] = test compound at 2 uM, MBP expression relative to quetiapine, NCC library screen, sheet "All OLga data", read-out: 2 uM (% Quet)
[6] = test compound at 10 uM, MBP expression relative to quetiapine, NCC library screen, sheet "All OLga data", read-out: 10 uM (% Quet)
[7] = read-out: 0.1 µM (% DMSO), alamarBlue viability, NCC library compound at 0.1 µM, sheet "All Tox data"
[8] = read-out: 1 µM (% DMSO), alamarBlue viability, NCC library compound at 1 µM, sheet "All Tox data"
[9] = read-out: 10 µM (% DMSO), alamarBlue viability, NCC library compound at 10 µM, sheet "All Tox data"
[10] = 0.4 uM test compound, relative to quetiapine, sheet "All OLga data", read-out: OL differentiation, 0.4 uM (% Quet)
[11] = 2 uM test compound, relative to quetiapine, sheet "All OLga data", read-out: OL differentiation, 2 uM (% Quet)
[12] = test compound at 2 uM, NCC library screen, sheet "All OLga data", relative to quetiapine, read-out: 2 uM (% Quet)
[13] = read-out: 0.1 µM (% DMSO), alamarBlue viability of expanded OPCs, compound at 0.1 µM, sheet All Tox data
[14] = read-out: 1 µM (% DMSO), alamarBlue viability of expanded OPCs, compound at 1 µM, sheet All Tox data
[15] = read-out: 10 µM (% DMSO), alamarBlue viability of expanded OPCs, compound at 10 µM, sheet All Tox data
[16] = test compound at 10 uM, NCC library screen, sheet "All OLga data", relative to quetiapine, read-out: 10 uM (% Quet)
[17] = alamarBlue viability, NCC library compound at 0.1 µM, sheet "All Tox data"
[18] = alamarBlue viability, NCC library compound at 1 µM, sheet "All Tox data"
[19] = alamarBlue viability, NCC library compound at 10 µM, sheet "All Tox data"

With `Brc1c(NC2=NCCN2)ccc2nccnc12` [Brimonidine] the “0.1 µM (% DMSO)” value (expanded OPCs; [2]) was 91.9 % DMSO, the “1 µM (% DMSO)” value (expanded OPCs; [3]) was 99.2 % DMSO and the “10 µM (% DMSO)” value (expanded OPCs; [4]) was 95.4 % DMSO. For the same compound, the activation at 2 µM [1, 5] was 21.9% and the activation at 10 µM [1, 6] was 8.8%.

`CN(C)CCC(c1ccc(Br)cc1)c1ccccn1` (stereo not drawn) [Brompheniramine] showed a viability at 0.1 µM (expanded OPCs; [7]) of 95.3%, a viability at 1 µM (expanded OPCs; [8]) of 84.4% and a viability at 10 µM (expanded OPCs; [9]) of 39.2%. The activation at 0.4 µM [1, 10] was -2% and the activation at 2 µM [1, 11] was 0.5%.

In the case of `COc1cc2c(cc1OC)[C@@]13CCN4CC5=CCO[C@H]6CC(=O)N2[C@H]1[C@H]6[C@H]5C[C@H]43` [Brucine], the viability at 0.1 µM (expanded OPCs; [7]) is reported as 93%, the viability at 1 µM (expanded OPCs; [8]) is reported as 79.4% and the viability at 10 µM (expanded OPCs; [9]) is reported as 46.6%. For the same compound, the activation at 0.4 µM ([1]; test compound at 0.4 uM, NCC library screen, sheet "All OLga data", relative to quetiapine, read-out: 0.4 uM (% Quet)) was -2.6% and the activation at 2 µM [1, 12] was 11%.

With `CCCC1O[C@@H]2C[C@H]3[C@@H]4CCC5=CC(=O)C=C[C@]5(C)[C@H]4[C@@H](O)C[C@]3(C)[C@]2(C(=O)CO)O1` (stereo partly drawn) [Budesonide] the “0.1 µM (% DMSO)” value (expanded OPCs; [2]) was 112.0 % DMSO, the “1 µM (% DMSO)” value (expanded OPCs; [3]) was 115.9 % DMSO and the “10 µM (% DMSO)” value (expanded OPCs; [4]) was 95.7 % DMSO. For the same compound, the activation at 2 µM [1, 5] was 20.2% and the activation at 10 µM [1, 6] was -2.2%.

For `COc1cc(OC)c(C(=O)CCCN2CCCC2)c(OC)c1` [Buflomedil], the viability at 0.1 µM (expanded OPCs; [13]) was 105%, the viability at 1 µM (expanded OPCs; [14]) was 97.6% and the viability at 10 µM (expanded OPCs; [15]) was 124%. It also gave an activation at 2 µM [1, 11] of -16.4% and an activation at 10 µM ([1]; 10 uM test compound, relative to quetiapine, sheet "All OLga data", read-out: OL differentiation, 10 uM (% Quet)) of 24.4%.

In the case of `CCCCNc1cc(C(=O)O)cc(S(N)(=O)=O)c1Oc1ccccc1` [Bumetanide], the “0.1 µM (% DMSO)” value (expanded OPCs; [2]) is reported as 92.3 % DMSO, the “1 µM (% DMSO)” value (expanded OPCs; [3]) is reported as 97.8 % DMSO and the “10 µM (% DMSO)” value (expanded OPCs; [4]) is reported as 92.2 % DMSO. The activation at 2 µM [1, 12] was -20.2% and the activation at 10 µM [1, 16] was -11.6%.

For `CCCCN1CCCCC1C(=O)Nc1c(C)cccc1C` (stereo not drawn) [Bupivacaine], the viability at 0.1 µM (expanded OPCs; [7]) was 79.1%, the viability at 1 µM (expanded OPCs; [8]) was 83.4% and the viability at 10 µM (expanded OPCs; [9]) was 70.5%. The activation at 2 µM [1, 12] was -1% and the activation at 10 µM [1, 16] was 7%.

For `CC(NC(C)(C)C)C(=O)c1cccc(Cl)c1` (stereo not drawn) [Bupropion], the viability at 0.1 µM (expanded OPCs; [13]) was 94.3%, the viability at 1 µM (expanded OPCs; [14]) was 98.9% and the viability at 10 µM (expanded OPCs; [15]) was 128%. For the same compound, the activation at 2 µM [1, 11] was 33.6%.

`O=C1CC2(CCCC2)CC(=O)N1CCCCN1CCN(c2ncccn2)CC1` [Buspirone] was tested, and the “0.1 µM (% DMSO)” value (expanded OPCs; [2]) was 98.1 % DMSO, the “1 µM (% DMSO)” value (expanded OPCs; [3]) was 95.9 % DMSO and the “10 µM (% DMSO)” value (expanded OPCs; [4]) was 122.3 % DMSO. For the same compound, the activation at 2 µM [1, 5] was 11.2% and the activation at 10 µM [1, 6] was 38.1%.

`CS(=O)(=O)OCCCCOS(C)(=O)=O` [Busulfan] was tested, and the “0.1 µM (% DMSO)” value (expanded OPCs; [2]) was 93.9 % DMSO, the “1 µM (% DMSO)” value (expanded OPCs; [3]) was 91.8 % DMSO and the “10 µM (% DMSO)” value (expanded OPCs; [4]) was 79.1 % DMSO. It also gave an activation at 2 µM [1, 12] of 2.3% and an activation at 10 µM [1, 16] of -6.2%.

With `OC[C@H]1O[C@@H](n2cnc3c(NC4CCCC4)nc(Cl)nc32)[C@H](O)[C@@H]1O` [CCPA] the “0.1 µM (% DMSO)” value (expanded OPCs; [17]) was 87.1 % DMSO, the “1 µM (% DMSO)” value (expanded OPCs; [18]) was 88.1 % DMSO and the “10 µM (% DMSO)” value (expanded OPCs; [19]) was 93.0 % DMSO. The “2 uM (% Quet)” value ([1]; test compound at 2 uM, NCC library screen, sheet "All OLga data", relative to quetiapine) was -30.5 % Quet and the “10 uM (% Quet)” value ([1]; test compound at 10 uM, NCC library screen, sheet "All OLga data", relative to quetiapine) was -64.0 % Quet.

`Nc1nc2ccc(Cl)cc2c2nc(-c3ccco3)nn12` [CGS 15943] showed a viability at 0.1 µM (expanded OPCs; read-out: 0.1 µM (% DMSO)) of 81.2%, a viability at 1 µM (expanded OPCs; read-out: 1 µM (% DMSO)) of 94.8% and a viability at 10 µM (expanded OPCs; read-out: 10 µM (% DMSO)) of 112%. It also gave an activation at 2 µM ([1]; read-out: OL differentiation, 2 uM (% Quet)) of -24.4% and an activation at 10 µM ([1]; read-out: OL differentiation, 10 uM (% Quet)) of -126%.

`CN1CCN(c2nc3cc(C(F)(F)F)ccc3n3cccc23)CC1.O=C(O)/C=C\C(=O)O.O=C(O)/C=C\C(=O)O` [CGS-12066B] was tested, and the “0.1 µM (% DMSO)” value (expanded OPCs; [17]) was 78.7 % DMSO, the “1 µM (% DMSO)” value (expanded OPCs; [18]) was 44.5 % DMSO and the “10 µM (% DMSO)” value (expanded OPCs; [19]) was 16.9 % DMSO. The “0.08 uM (% Quet)” value ([1]; test compound at 0.08 uM, NCC library screen, sheet "All OLga data", relative to quetiapine) was 28.1 % Quet and the “0.4 uM (% Quet)” value ([1]; test compound at 0.4 uM, NCC library screen, sheet "All OLga data", relative to quetiapine) was -50.5 % Quet.

`C=C1/C(=C\C=C2/CCC[C@]3(C)[C@@H]([C@H](C)/C=C/[C@@H](O)C4CC4)CC[C@@H]23)C[C@@H](O)C[C@@H]1O` [Calcipotriene] was tested, and the viability at 0.1 µM (expanded OPCs; [13]) was 98.3%, the viability at 1 µM (expanded OPCs; [14]) was 89% and the viability at 10 µM (expanded OPCs; [15]) was 11.5%. It also gave an activation at 0.4 µM [1, 10] of 14.8% and an activation at 2 µM [1, 11] of -7.8%.
